Reference: patent US20250333407A1, “Compounds and Their Use for Treatment of Hemoglobinopathies” (Bristol-Myers Squibb Company, priority 2024, published 2025)

Tests used:
Assay type in all cases: cell-based
[1] = biological target: T1, WIZ (Homo sapiens, UniProt O95785+Q96SW2); assay: HUDEP-2 WIZ HiBiT degradation assay; conditions: HiBiT-tagged WIZ degradation in HUDEP-2 cells, 24 hours of treatment; read-out: WIZ EC50
T1 construct: HUDEP-2 cells engineered to express a HiBiT tag in either the WIZ (Widely interspaced zinc finger) or ZBTB7A
T1 sequence (O95785 whole entry): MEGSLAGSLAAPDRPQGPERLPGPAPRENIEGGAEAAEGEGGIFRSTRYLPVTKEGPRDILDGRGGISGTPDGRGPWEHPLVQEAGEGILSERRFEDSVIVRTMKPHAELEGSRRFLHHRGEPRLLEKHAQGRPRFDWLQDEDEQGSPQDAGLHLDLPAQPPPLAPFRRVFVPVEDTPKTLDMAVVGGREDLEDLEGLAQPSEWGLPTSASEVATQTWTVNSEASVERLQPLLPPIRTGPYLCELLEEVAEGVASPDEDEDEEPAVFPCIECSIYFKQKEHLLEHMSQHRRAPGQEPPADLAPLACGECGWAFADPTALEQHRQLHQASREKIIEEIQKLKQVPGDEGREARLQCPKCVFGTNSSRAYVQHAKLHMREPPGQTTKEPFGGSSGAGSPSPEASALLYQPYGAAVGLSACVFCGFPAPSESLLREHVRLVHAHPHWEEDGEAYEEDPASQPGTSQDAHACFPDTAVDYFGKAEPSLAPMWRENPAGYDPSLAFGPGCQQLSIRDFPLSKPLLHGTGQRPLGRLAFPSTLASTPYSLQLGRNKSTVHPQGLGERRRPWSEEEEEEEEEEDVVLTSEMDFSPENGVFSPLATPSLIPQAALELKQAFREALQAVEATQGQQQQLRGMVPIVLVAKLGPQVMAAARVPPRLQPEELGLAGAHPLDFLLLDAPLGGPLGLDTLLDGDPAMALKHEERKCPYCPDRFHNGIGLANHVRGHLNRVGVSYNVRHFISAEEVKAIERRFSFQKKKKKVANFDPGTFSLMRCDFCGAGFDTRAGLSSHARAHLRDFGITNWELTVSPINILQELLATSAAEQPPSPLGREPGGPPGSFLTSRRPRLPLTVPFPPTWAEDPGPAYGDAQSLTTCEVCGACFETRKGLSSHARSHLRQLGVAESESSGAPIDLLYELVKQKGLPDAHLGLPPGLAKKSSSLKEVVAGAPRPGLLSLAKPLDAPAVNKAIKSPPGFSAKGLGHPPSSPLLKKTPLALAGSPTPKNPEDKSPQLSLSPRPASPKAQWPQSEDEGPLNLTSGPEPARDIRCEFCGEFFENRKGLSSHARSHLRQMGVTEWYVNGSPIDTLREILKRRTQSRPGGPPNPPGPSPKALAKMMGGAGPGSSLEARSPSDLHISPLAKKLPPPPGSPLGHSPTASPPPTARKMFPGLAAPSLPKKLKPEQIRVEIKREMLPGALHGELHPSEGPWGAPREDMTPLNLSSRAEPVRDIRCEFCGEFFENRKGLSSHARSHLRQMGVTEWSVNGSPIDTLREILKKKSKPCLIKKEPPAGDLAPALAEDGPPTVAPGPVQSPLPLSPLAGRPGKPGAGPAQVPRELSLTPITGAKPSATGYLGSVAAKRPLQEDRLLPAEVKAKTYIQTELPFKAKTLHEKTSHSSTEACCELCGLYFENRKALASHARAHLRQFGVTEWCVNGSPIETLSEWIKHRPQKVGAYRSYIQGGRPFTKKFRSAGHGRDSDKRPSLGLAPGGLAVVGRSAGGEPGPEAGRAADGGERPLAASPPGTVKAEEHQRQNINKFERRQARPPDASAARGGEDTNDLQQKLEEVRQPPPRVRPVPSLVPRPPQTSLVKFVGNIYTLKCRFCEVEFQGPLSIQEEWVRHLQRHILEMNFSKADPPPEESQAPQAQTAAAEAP
T1 sequence (Q96SW2 whole entry): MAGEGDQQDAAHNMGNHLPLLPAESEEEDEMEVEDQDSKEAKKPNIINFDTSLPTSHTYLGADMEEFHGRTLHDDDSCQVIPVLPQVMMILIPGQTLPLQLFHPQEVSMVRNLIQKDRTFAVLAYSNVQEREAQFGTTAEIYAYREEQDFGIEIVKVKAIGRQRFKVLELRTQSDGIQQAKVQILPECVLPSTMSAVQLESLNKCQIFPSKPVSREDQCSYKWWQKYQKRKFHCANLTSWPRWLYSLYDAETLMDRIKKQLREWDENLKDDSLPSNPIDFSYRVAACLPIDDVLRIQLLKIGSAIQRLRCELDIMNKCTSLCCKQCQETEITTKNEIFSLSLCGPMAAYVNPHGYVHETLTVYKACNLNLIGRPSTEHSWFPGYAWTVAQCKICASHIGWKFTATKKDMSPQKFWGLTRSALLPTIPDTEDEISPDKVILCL
T1 sequence (Q16531 whole entry partner): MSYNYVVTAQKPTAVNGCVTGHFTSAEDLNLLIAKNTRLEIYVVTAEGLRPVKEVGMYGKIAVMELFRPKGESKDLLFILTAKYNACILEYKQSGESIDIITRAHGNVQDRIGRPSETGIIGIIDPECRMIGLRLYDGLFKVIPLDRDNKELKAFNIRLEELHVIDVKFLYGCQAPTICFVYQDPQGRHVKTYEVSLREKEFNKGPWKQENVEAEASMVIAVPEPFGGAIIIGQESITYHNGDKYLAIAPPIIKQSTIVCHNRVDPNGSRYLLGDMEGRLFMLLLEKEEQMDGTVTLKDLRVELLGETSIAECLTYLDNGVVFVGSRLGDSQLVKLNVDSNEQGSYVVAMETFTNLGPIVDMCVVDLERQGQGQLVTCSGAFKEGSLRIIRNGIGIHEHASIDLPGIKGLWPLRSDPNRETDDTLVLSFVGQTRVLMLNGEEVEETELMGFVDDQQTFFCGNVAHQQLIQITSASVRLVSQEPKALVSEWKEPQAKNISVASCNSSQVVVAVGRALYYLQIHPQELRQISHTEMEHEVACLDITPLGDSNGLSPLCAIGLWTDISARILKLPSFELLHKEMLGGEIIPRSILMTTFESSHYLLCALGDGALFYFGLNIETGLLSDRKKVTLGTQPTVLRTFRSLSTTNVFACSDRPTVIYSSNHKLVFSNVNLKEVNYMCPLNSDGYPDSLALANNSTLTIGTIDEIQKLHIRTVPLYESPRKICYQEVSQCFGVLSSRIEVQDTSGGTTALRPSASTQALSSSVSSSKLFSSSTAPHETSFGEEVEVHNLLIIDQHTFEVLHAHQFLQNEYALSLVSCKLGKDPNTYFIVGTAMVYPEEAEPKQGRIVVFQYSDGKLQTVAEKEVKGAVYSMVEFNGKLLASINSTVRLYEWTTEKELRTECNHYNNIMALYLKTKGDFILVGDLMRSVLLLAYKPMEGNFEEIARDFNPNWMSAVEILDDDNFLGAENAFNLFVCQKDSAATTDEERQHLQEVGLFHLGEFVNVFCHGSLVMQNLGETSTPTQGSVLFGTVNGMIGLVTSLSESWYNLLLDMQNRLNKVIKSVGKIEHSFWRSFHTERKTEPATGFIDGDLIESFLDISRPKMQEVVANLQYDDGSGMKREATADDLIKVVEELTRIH
Summary of the method: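 HiBiT-tagged HUDEP-2 cells at 1.0×10^6 cells/ml in SFEM II with SCF, EPO, dexamethasone and doxycycline, treated 24 h at 37 °C with a 10-point series ([…]). Luminescence after HiBiT lytic detection, normalized to DMSO; EC50 and Y-min from fitted curves.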

[2] = biological target: T2, ZBTB7A (Homo sapiens, UniProt O95365+Q96SW2); assay: HUDEP-2 ZBTB7A HiBiT degradation assay; conditions: HiBiT-tagged ZBTB7A degradation in HUDEP-2 cells, 24 hours of treatment; read-out: ZBTB7A EC50
T2 construct: HUDEP-2 cells engineered to express a HiBiT tag in either the WIZ (Widely interspaced zinc finger) or ZBTB7A
T2 sequence (O95365 whole entry): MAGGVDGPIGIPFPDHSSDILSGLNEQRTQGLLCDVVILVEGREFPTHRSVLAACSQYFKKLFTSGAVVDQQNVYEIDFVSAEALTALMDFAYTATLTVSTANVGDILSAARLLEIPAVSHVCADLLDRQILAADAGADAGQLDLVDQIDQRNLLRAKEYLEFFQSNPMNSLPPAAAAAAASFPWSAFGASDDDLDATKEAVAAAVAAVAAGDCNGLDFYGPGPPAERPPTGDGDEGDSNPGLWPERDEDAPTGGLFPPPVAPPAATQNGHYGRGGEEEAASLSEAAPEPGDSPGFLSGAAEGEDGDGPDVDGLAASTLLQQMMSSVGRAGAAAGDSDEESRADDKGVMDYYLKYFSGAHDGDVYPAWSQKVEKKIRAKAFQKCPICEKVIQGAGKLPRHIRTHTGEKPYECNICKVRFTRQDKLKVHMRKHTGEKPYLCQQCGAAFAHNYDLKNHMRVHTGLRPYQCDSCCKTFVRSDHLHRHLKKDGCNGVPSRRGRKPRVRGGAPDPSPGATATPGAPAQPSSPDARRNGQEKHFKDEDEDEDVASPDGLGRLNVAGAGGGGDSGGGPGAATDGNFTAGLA
T2 sequence (Q96SW2 whole entry): as the sequence (Q96SW2 whole entry) above
T2 sequence (Q16531 whole entry partner): as the sequence (Q16531 whole entry partner) above
Summary of the method: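 HiBiT-tagged HUDEP-2 cells were pre-cultured 48 h in IMDM with EPO, SCF, doxycycline and 5% human plasma, then exposed to compounds at 1.0×10^6 cells/ml for 24 h at 37 °C. Nano-Glo HiBiT lytic luminescence, normalised to DMSO over 10 concentrations, gave EC50 and Y-min.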

[3] = test system: HbF; assay: HbF HiBiT induction assay in HUDEP-2 cells; conditions: HUDEP-2 cells with HiBiT tag in HBG1/2, 72 hours of treatment; area under the dose response curve, higher AUC = greater HbF induction
Summary of the method: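 HUDEP-2 cells carrying a HiBiT tag on HBG1/2 were exposed to compounds for 72 h at 37° C, 5% CO2, in IMDM with EPO, hSCF, DOX, transferrin, insulin, heparin and 5% human plasma. HiBiT luminescence was read after lytic detection; HbF induction is expressed as dose-response AUC, alongside EC50 and Ymax.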

| DC50 [1] [nM] | DC50 [2] [nM] | SMILES | HBF AUC [3] |
| --- | --- | --- | --- |
| 11 | 8 | COc1nccc(-c2cc3c(cc2Nc2cccc4c2C(=O)N([C@H]2CCC(=O)NC2=O)C4=O)N(C)C(=O)[C@H](C)O3)c1F [Compound 35, 2-((S)-2,6-dioxopiperidin-3-yl)-4-(((S)-7-(3-fluoro-2-methoxypyridin-4-yl)-2,4-dimethyl-3-oxo-3,4-dihydro-2H-benzo[b][1,4]oxazin-6-yl)amino)isoindoline-1,3-dione] | + (+ = 15 ≤ AUC < 100) |
| 15 | 19 | COc1nccc(-c2cc3c(cc2Nc2cccc4c2C(=O)N([C@H]2CCC(=O)NC2=O)C4=O)N(C)C(=O)[C@@H](C)O3)c1F [Compound 36, 2-((S)-2,6-dioxopiperidin-3-yl)-4-(((R)-7-(3-fluoro-2-methoxypyridin-4-yl)-2,4-dimethyl-3-oxo-3,4-dihydro-2H-benzo[b][1,4]oxazin-6-yl)amino)isoindoline-1,3-dione] | + (+ = 15 ≤ AUC < 100) |
| 7 | 13 | Cc1ccc(-c2cc3c(cc2Nc2cccc4c2C(=O)N([C@H]2CCC(=O)NC2=O)C4=O)N(C)C(=O)CO3)c(F)n1 [Compound 37, (S)-2-(2,6-dioxopiperidin-3-yl)-4-((7-(2-fluoro-6-methylpyridin-3-yl)-4-methyl-3-oxo-3,4-dihydro-2H-benzo[b][1,4]oxazin-6-yl)amino)isoindoline-1,3-dione] | + (+ = 15 ≤ AUC < 100) |
| 14 | 13 | COc1ccc(-c2cc3c(cc2Nc2cccc4c2C(=O)N([C@H]2CCC(=O)NC2=O)C4=O)N(C)C(=O)CO3)cn1 [Compound 38, (S)-2-(2,6-dioxopiperidin-3-yl)-4-((7-(6-methoxypyridin-3-yl)-4-methyl-3-oxo-3,4-dihydro-2H-benzo[b][1,4]oxazin-6-yl)amino)isoindoline-1,3-dione] | ++ (++ = 100 ≤ AUC < 150) |
| 13 | 16 | COc1ccc(-c2cc3c(cc2Nc2cccc4c2C(=O)N([C@H]2CCC(=O)NC2=O)C4=O)N(C)C(=O)[C@@H](C)O3)cn1 [Compound 39, 2-((S)-2,6-dioxopiperidin-3-yl)-4-(((R)-7-(6-methoxypyridin-3-yl)-2,4-dimethyl-3-oxo-3,4-dihydro-2H-benzo[b][1,4]oxazin-6-yl)amino)isoindoline-1,3-dione] | + (+ = 15 ≤ AUC < 100) |
| 12 | 16 | COc1ccc(-c2cc3c(cc2Nc2cccc4c2C(=O)N([C@H]2CCC(=O)NC2=O)C4=O)N(C)C(=O)[C@H](C)O3)cn1 [Compound 40, 2-((S)-2,6-dioxopiperidin-3-yl)-4-(((S)-7-(6-methoxypyridin-3-yl)-2,4-dimethyl-3-oxo-3,4-dihydro-2H-benzo[b][1,4]oxazin-6-yl)amino)isoindoline-1,3-dione] | + (+ = 15 ≤ AUC < 100) |
| 10 | 17 | Cc1cncc(-c2cc3c(cc2Nc2cccc4c2C(=O)N([C@H]2CCC(=O)NC2=O)C4=O)N(C)C(=O)CO3)c1 [Compound 41, (S)-2-(2,6-dioxopiperidin-3-yl)-4-((4-methyl-7-(5-methylpyridin-3-yl)-3-oxo-3,4-dihydro-2H-benzo[b][1,4]oxazin-6-yl)amino)isoindoline-1,3-dione] | +++ (+++ = AUC ≥ 150) |
| 9 | 18 | Cc1cncc(-c2cc3c(cc2Nc2cccc4c2C(=O)N([C@H]2CCC(=O)NC2=O)C4=O)N(C)C(=O)[C@@H](C)O3)c1 [Compound 42, 4-(((R)-2,4-dimethyl-7-(5-methylpyridin-3-yl)-3-oxo-3,4-dihydro-2H-benzo[b][1,4]oxazin-6-yl)amino)-2-((S)-2,6-dioxopiperidin-3-yl)isoindoline-1,3-dione] | + (+ = 15 ≤ AUC < 100) |
| 15 | 24 | Cc1cncc(-c2cc3c(cc2Nc2cccc4c2C(=O)N([C@H]2CCC(=O)NC2=O)C4=O)N(C)C(=O)[C@H](C)O3)c1 [Compound 43, 4-(((S)-2,4-dimethyl-7-(5-methylpyridin-3-yl)-3-oxo-3,4-dihydro-2H-benzo[b][1,4]oxazin-6-yl)amino)-2-((S)-2,6-dioxopiperidin-3-yl)isoindoline-1,3-dione] | ++ (++ = 100 ≤ AUC < 150) |
| 4 | 6 | CCO[C@H]1CC[C@H](c2cc3c(cc2Nc2cccc4c2C(=O)N([C@H]2CCC(=O)NC2=O)C4=O)N(C)C(=O)CO3)CC1 [Compound 44, 2-((S)-2,6-dioxopiperidin-3-yl)-4-((7-((1r,4S)-4-ethoxycyclohexyl)-4-methyl-3-oxo-3,4-dihydro-2H-benzo[b][1,4]oxazin-6-yl)amino)isoindoline-1,3-dione] | ++ (++ = 100 ≤ AUC < 150) |
| 6 | 10 | CCO[C@H]1CC[C@H](c2cc3c(cc2Nc2cccc4c2C(=O)N([C@H]2CCC(=O)NC2=O)C4=O)N(C)C(=O)[C@@H](C)O3)CC1 [Compound 45, 2-((S)-2,6-dioxopiperidin-3-yl)-4-(((R)-7-((1r,4R)-4-ethoxycyclohexyl)-2,4-dimethyl-3-oxo-3,4-dihydro-2H-benzo[b][1,4]oxazin-6-yl)amino)isoindoline-1,3-dione] | ++ (++ = 100 ≤ AUC < 150) |
| 2 | 7 | CCO[C@H]1CC[C@H](c2cc3c(cc2Nc2cccc4c2C(=O)N([C@H]2CCC(=O)NC2=O)C4=O)N(C)C(=O)[C@H](C)O3)CC1 [Compound 46, 2-((S)-2,6-dioxopiperidin-3-yl)-4-(((S)-7-((1r,4S)-4-ethoxycyclohexyl)-2,4-dimethyl-3-oxo-3,4-dihydro-2H-benzo[b][1,4]oxazin-6-yl)amino)isoindoline-1,3-dione] | ++ (++ = 100 ≤ AUC < 150) |
| 43 | 49 | Cc1cc(-c2cc3c(cc2Nc2cccc4c2C(=O)N([C@H]2CCC(=O)NC2=O)C4=O)N(C)C(=O)CO3)cc(C(F)F)n1 [Compound 47, (S)-4-((7-(2-(difluoromethyl)-6-methylpyridin-4-yl)-4-methyl-3-oxo-3,4-dihydro-2H-benzo[b][1,4]oxazin-6-yl)amino)-2-(2,6-dioxopiperidin-3-yl)isoindoline-1,3-dione] | +++ (+++ = AUC ≥ 150) |
| 31 | 52 | Cc1cc(-c2cc3c(cc2Nc2cccc4c2C(=O)N([C@H]2CCC(=O)NC2=O)C4=O)N(C)C(=O)[C@H](C)O3)cc(C(F)F)n1 [Compound 48, 4-(((S)-7-(2-(difluoromethyl)-6-methylpyridin-4-yl)-2,4-dimethyl-3-oxo-3,4-dihydro-2H-benzo[b][1,4]oxazin-6-yl)amino)-2-((S)-2,6-dioxopiperidin-3-yl)isoindoline-1,3-dione] | ++ (++ = 100 ≤ AUC < 150) |
| 39 | 71 | Cc1cc(-c2cc3c(cc2Nc2cccc4c2C(=O)N([C@H]2CCC(=O)NC2=O)C4=O)N(C)C(=O)[C@@H](C)O3)cc(C(F)F)n1 [Compound 49, 4-(((R)-7-(2-(difluoromethyl)-6-methylpyridin-4-yl)-2,4-dimethyl-3-oxo-3,4-dihydro-2H-benzo[b][1,4]oxazin-6-yl)amino)-2-((S)-2,6-dioxopiperidin-3-yl)isoindoline-1,3-dione] | ++ (++ = 100 ≤ AUC < 150) |
| 18 | 28 | Cc1cc(-c2cc3c(cc2Nc2cccc4c2C(=O)N(C2CCC(=O)NC2=O)C4=O)N(C)S(=O)(=O)CC3)ccn1 (stereo not drawn) [Compound 50, 2-(2,6-dioxopiperidin-3-yl)-4-((1-methyl-6-(2-methylpyridin-4-yl)-2,2-dioxido-3,4-dihydro-1H-benzo[c][1,2]thiazin-7-yl)amino)isoindoline-1,3-dione] | + (+ = 15 ≤ AUC < 100) |
| 37 | 30 | COc1ncc(-c2cc3c(cc2Nc2cccc4c2C(=O)N(C2CCC(=O)NC2=O)C4=O)N(C)C(=O)CO3)cc1F (stereo not drawn) [Compound 51, 2-(2,6-dioxopiperidin-3-yl)-4-((7-(5-fluoro-6-methoxypyridin-3-yl)-4-methyl-3-oxo-3,4-dihydro-2H-benzo[b][1,4]oxazin-6-yl)amino)isoindoline-1,3-dione] | ++ (++ = 100 ≤ AUC < 150) |
| 12 | 143 | CCOc1cc(-c2cc3c(cc2Nc2cccc4c2C(=O)N(C2CCC(=O)NC2=O)C4=O)N(C)C(=O)CO3)ccn1 (stereo not drawn) [Compound 52, 2-(2,6-dioxopiperidin-3-yl)-4-((7-(2-ethoxypyridin-4-yl)-4-methyl-3-oxo-3,4-dihydro-2H-benzo[b][1,4]oxazin-6-yl)amino)isoindoline-1,3-dione] | + (+ = 15 ≤ AUC < 100) |
| 4 | 10 | CN1C(=O)COc2cc([C@H]3CC[C@H](C#N)CC3)c(Nc3cccc4c3C(=O)N(C3CCC(=O)NC3=O)C4=O)cc21 (stereo partly drawn) [Compound 53, (1r,4r)-4-(6-((2-(2,6-dioxopiperidin-3-yl)-1,3-dioxoisoindolin-4-yl)amino)-4-methyl-3-oxo-3,4-dihydro-2H-benzo[b][1,4]oxazin-7-yl)cyclohexane-1-carbonitrile] | ++ (++ = 100 ≤ AUC < 150) |
